{"source": "paper PMC8746970", "about": "“Determination of the Peptide AWRK6 in Rat Plasma by Liquid Chromatography-Tandem Mass Spectrometry (LC-MS/MS) and Its Application to Pharmacokinetics” (Molecules, 2021)", "assay": "Stability of AWRK6 QC samples in rat plasma under storage conditions", "format": "in vitro ADME", "details": "for measured concentration of QC sample after storage / relative error of QC sample after storage: rat plasma QC, LC-MS/MS, n = 3; for measured concentration of QC sample after storage: mean ± SD", "procedure": "The AWRK6 and IS were dissolved in water at 1.0 mg/mL for stock solution. The AWRK6 calibration standards at 0.05, 0.1, 0.5, 1, 2, 5, and 10 μg/mL were prepared by mixing 50 μL of working solution and 100 μL of blank plasma individually. QC samples of AWRK6 at 0.1, 0.5, and 5 μg/mL were prepared by the same method. The thawed plasma samples (100 μL) were mixed with 50 μL water (or QC), 50 μL IS (1 μg/mL), and 20 μL FA-water (25:75, v/v). A combination of plasma precipitation and liquid–liquid extraction was applied for the extraction of AWRK6 in samples. After adding 200 μL methanol and 100 μL dichloromethane, the mixtures were vortexed for 30 s and centrifuged at 14,000 g for 10 min. The supernatant was filtered by 0.22 μm membrane for LC-MS/MS analysis.\nThe method was validated for specificity, linearity, LOD, LOQ, LLOQ, precision, accuracy, recovery, matrix effect, and stability according to U.S. FDA guidelines. Specificity was determined using blank plasma samples from 6 rats. Linearity was accessed using calibration standards in triplicate within 3 consecutive days. LOD and LOQ were estimated as concentrations of AWRK6 which generated S/N value of 3 or 10, and they were verified by continuous evaluating the S/N value of 3 LOD samples or 6 LOQ samples. LLOQ was determined using 6 calibration standard samples at 0.05 μg/mL. Precision and accuracy were accessed using QC samples and repeated 6 times within 3 consecutive days. Recovery was calculated by comparing the respective peak areas of the QC samples with the blank plasma samples spiked after extraction (repeated 6 times). Matrix effect was evaluated by comparing the respective peak areas of the QC samples with standard solutions (AWRK6 and IS in water, respectively) at the same concentrations (repeated 6 times). Stability was analyzed using QC samples under different storage conditions including room temperature for 6 h, 3 freeze–thaw cycles, 4 °C for 12 h, and−20 °C for 7 days.", "key": {"[1]": {"details": "nominal 0.100 μg/mL, room temperature for 6 h"}, "[2]": {"details": "nominal 0.100 μg/mL, storage at 4 °C for 12 h"}, "[3]": {"details": "nominal 0.100 μg/mL, storage at −20 °C for 7 days"}, "[4]": {"details": "nominal 0.100 μg/mL, three freeze–thaw cycles"}, "[5]": {"details": "nominal 0.500 μg/mL, room temperature for 6 h"}, "[6]": {"details": "nominal 0.500 μg/mL, storage at 4 °C for 12 h"}, "[7]": {"details": "nominal 0.500 μg/mL, storage at −20 °C for 7 days"}, "[8]": {"details": "nominal 0.500 μg/mL, three freeze–thaw cycles"}, "[9]": {"details": "nominal 5.000 μg/mL, storage at 4 °C for 12 h"}, "[10]": {"details": "nominal 5.000 μg/mL, storage at −20 °C for 7 days"}, "[11]": {"details": "nominal 5.000 μg/mL, three freeze–thaw cycles"}}, "note": "No end group written: not given here.", "data": [{"substance": "SWVGKHGKKFGLKKHKKH-NH2 (C-terminus assumed) [AWRK6]", "values": [{"measurement": "relative error of QC samples (stability acceptable)", "setting": "rat plasma QC 0.1, 0.5, 5 μg/mL, room temperature for 6 h, 3 freeze–thaw cycles, and 4 °C for 12 h", "value": "< 12", "unit": "%"}, {"measurement": "relative error of QC samples (significant degradation)", "setting": "rat plasma QC 0.1, 0.5, 5 μg/mL, storage at −20 °C for 7 days", "value": "−16.94 to −34.74", "unit": "%"}, {"measurement": "measured concentration of QC sample after storage", "setting": "[1]", "value": "0.089 ± 0.007", "unit": "µg/mL"}, {"measurement": "relative error of QC sample after storage", "setting": "[1]", "value": "−6.315", "unit": "%"}, {"measurement": "measured concentration of QC sample after storage", "setting": "[2]", "value": "0.084 ± 0.013", "unit": "µg/mL"}, {"measurement": "relative error of QC sample after storage", "setting": "[2]", "value": "−11.579", "unit": "%"}, {"measurement": "measured concentration of QC sample after storage", "setting": "[3]", "value": "0.062 ± 0.018", "unit": "µg/mL"}, {"measurement": "relative error of QC sample after storage", "setting": "[3]", "value": "−34.737", "unit": "%"}, {"measurement": "measured concentration of QC sample after storage", "setting": "[4]", "value": "0.091 ± 0.008", "unit": "µg/mL"}, {"measurement": "relative error of QC sample after storage", "setting": "[4]", "value": "−4.210", "unit": "%"}, {"measurement": "measured concentration of QC sample after storage", "setting": "[5]", "value": "0.462 ± 0.021", "unit": "µg/mL"}, {"measurement": "relative error of QC sample after storage", "setting": "[5]", "value": "−4.742", "unit": "%"}, {"measurement": "measured concentration of QC sample after storage", "setting": "[6]", "value": "0.442 ± 0.015", "unit": "µg/mL"}, {"measurement": "relative error of QC sample after storage", "setting": "[6]", "value": "−8.866", "unit": "%"}, {"measurement": "measured concentration of QC sample after storage", "setting": "[7]", "value": "0.387 ± 0.047", "unit": "µg/mL"}, {"measurement": "relative error of QC sample after storage", "setting": "[7]", "value": "−20.206", "unit": "%"}, {"measurement": "measured concentration of QC sample after storage", "setting": "[8]", "value": "0.477 ± 0.016", "unit": "µg/mL"}, {"measurement": "relative error of QC sample after storage", "setting": "[8]", "value": "−1.649", "unit": "%"}, {"measurement": "measured concentration of QC sample after storage", "setting": "[9]", "value": "4.881 ± 0.301", "unit": "µg/mL"}, {"measurement": "relative error of QC sample after storage", "setting": "[9]", "value": "−1.040", "unit": "%"}, {"measurement": "measured concentration of QC sample after storage", "setting": "[10]", "value": "4.153 ± 0.442", "unit": "µg/mL"}, {"measurement": "relative error of QC sample after storage", "setting": "[10]", "value": "−16.940", "unit": "%"}, {"measurement": "measured concentration of QC sample after storage", "setting": "[11]", "value": "4.912 ± 0.049", "unit": "µg/mL"}, {"measurement": "relative error of QC sample after storage", "setting": "[11]", "value": "−0.409", "unit": "%"}]}]}
